Assay results taken from US10201523B2, “Use of wilforlide A for overcoming chemotherapy resistance” (WESTERN UNIVERSITY OF HEALTH SCIENCES, priority 2013, dated 2019).
Read-outs that look alike come from different tables or passages of the source.

System: DU-145
Experiment: SRB cell viability assay, docetaxel IC50 with/without wilforlide A pretreatment
Assay type: cell-based
Settings: for IC50: Homo sapiens

IC50 (72 h, read-out: Drug IC50 no pre-Tx): > 100 nM
IC50 (wilforlide A 2.5 μg/ml pre-Tx, read-out: Drug IC50 after wilforlide A pre-Tx): 42.5 nM
SMILES: CC(=O)O[C@@]12CO[C@@H]1C[C@H](O)[C@@]1(C)C(=O)[C@H](O)C3=C(C)[C@@H](OC(=O)[C@H](O)[C@@H](NC(=O)OC(C)(C)C)c4ccccc4)C[C@@](O)([C@@H](OC(=O)c4ccccc4)[C@H]21)C3(C)C [docetaxel]
CE (chemosensitization effect, wilforlide A 2.5 μg/ml pre-Tx): >2.35
